This test deals with Acetylcholinesterase (Electrophorus electricus, UniProt O42275). The experiment in a line: Inhibition of electric eel AChE by modified Ellman method. (DTNB colorimetry detects thiols as they appear.)
Sequence of Acetylcholinesterase (O42275 whole entry): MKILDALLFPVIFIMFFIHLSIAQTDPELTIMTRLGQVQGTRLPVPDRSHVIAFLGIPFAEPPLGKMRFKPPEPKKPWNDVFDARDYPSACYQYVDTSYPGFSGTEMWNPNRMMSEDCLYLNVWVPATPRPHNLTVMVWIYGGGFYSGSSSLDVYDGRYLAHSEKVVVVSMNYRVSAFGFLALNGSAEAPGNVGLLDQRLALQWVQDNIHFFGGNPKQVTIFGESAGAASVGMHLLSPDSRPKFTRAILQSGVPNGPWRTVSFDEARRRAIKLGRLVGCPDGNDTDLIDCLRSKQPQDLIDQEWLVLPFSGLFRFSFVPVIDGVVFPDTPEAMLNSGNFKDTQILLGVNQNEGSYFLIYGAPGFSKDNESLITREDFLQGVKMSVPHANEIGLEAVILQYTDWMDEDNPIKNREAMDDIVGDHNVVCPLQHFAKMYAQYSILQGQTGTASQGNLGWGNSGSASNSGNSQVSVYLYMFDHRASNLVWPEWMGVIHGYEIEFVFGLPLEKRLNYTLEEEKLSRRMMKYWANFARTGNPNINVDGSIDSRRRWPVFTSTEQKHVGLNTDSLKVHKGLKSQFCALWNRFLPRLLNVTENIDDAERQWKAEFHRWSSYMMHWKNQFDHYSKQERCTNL
Broadly, the IC50 is the concentration that inhibits the measured activity by half. Read a high IC50 as a need for much substance. With `O=C1/C(=C/c2cccc3ccccc23)CN2CC13[C@@H](c1cccc4ccccc14)C1CCCN1C31C(=O)c3ccccc3C21O` (stereo not given in full), the half-maximal inhibitory concentration (IC50) stood at 2.12 µM.
Next, `Cc1ccccc1/C=C1\CN2CC3(C1=O)[C@@H](c1ccccc1C)C1CCCN1C31C(=O)c3ccccc3C21O` (stereo not given in full): 1.2 µM; `O=C1/C(=C/c2ccc(F)cc2)CN2CC13[C@@H](c1ccc(F)cc1)C1CCCN1C31C(=O)c3ccccc3C21O` (stereo not given in full): 11.3 µM; `O=C1/C(=C/c2ccccc2)CN2CC13[C@@H](c1ccccc1)C1CCCN1C31C(=O)c3ccccc3C21O` (stereo not given in full): 6.86 µM.
With `O=C1/C(=C/c2ccccc2Cl)CN2CC13[C@@H](c1ccccc1Cl)C1CCCN1C31C(=O)c3ccccc3C21O` (stereo not given in full), the IC50 is 5.12 µM.
Next, `Cc1ccc(/C=C2\CN3CC4(C2=O)[C@@H](c2ccc(C)cc2)C2CCCN2C42C(=O)c4ccccc4C32O)cc1` (stereo not given in full): 0.72 µM; `O=C1/C(=C/c2ccc(Cl)cc2)CN2CC13[C@@H](c1ccc(Cl)cc1)C1CCCN1C31C(=O)c3ccccc3C21O` (stereo not given in full): 11.2 µM; `O=C1/C(=C/c2ccc(Cl)cc2Cl)CN2CC13[C@@H](c1ccc(Cl)cc1Cl)C1CCCN1C31C(=O)c3ccccc3C21O` (stereo not given in full): 12.2 µM.
In turn, `O=C1/C(=C/c2ccc(Br)cc2)CN2CC13[C@@H](c1ccc(Br)cc1)C1CCCN1C31C(=O)c3ccccc3C21O` (stereo not given in full) showed an IC50 of 9.26 µM.
`O=C1/C(=C/c2cccc([N+](=O)[O-])c2)CN2CC13[C@@H](c1cccc([N+](=O)[O-])c1)C1CCCN1C31C(=O)c3ccccc3C21O` (stereo not given in full) displayed a half-maximal inhibitory concentration (IC50) of 6.2 µM.

The values above are taken from ChEMBL document CHEMBL1795302, “Synthesis and discovery of novel hexacyclic cage compounds as inhibitors of acetylcholinesterase” (Bioorg Med Chem Lett, 2011).
